In patent publication US9901577B2, “Oxoquinazolinyl-butanamide derivatives” (MERCK PATENT GMBH, priority 2013, dated 2018):
Read-outs that look alike come from different tables or passages of the source.

What was measured:
TNKS1 = molecular target: T1, TNKS1 (Homo sapiens, UniProt O95271); assay: TNKS1 activity ELISA (autoparsylation assay); format: biochemical
T1 construct: GST-tagged Tnks-1 (1023-1327 aa, prepared in-house); made in house
Protocol: (§1) Description of the TNKS1 and TNKS2 ELISA Assay
(§2) Biochemical Activity Testing of TNKS 1 and 2: Activity ELISA (Autoparsylation Assay)
(§3) For analysis of autoparsylation activity of TNKS 1 and 2 an activity ELISA iss performed: In the first step GST tagged TNKS is captured on a Glutathione coated plate. Then the activity assay with biotinylated NAD is performed in the absence/presence of the compounds. During the enzymatic reaction GST tagged TNKS transfers biotinylated ADP-ribose to itself from biotinylated NAD as co-substrate. For the detection streptavidin-HRP conjugate is added that binds to the biotinylated TNKS and is thereby captured to the plates. The amount of biotinylated resp. autoparsylated TNKS is detected with a luminescence substrate for HRP. The level of the luminescence signal correlates directly with the amount of autoparsylated TNKS and therefore with activity of TNKS.
(§4) The activity ELISA is performed in 384 well Glutathione coated microtiter plates (Express capture Glutathione coated plate, Biocat, Heidelberg, Germany). The plates are pre-equilibrated with PBS. […] The plates are washed 3 times with PBS-Tween-20. The wells are blocked by incubation at room temperature for 20 minutes with 50 μl blocking buffer (PBS, 0.05% Tween-20, 0.5% BSA). Afterwards the plates are washed 3 times with PBS-Tween-20. […] The reaction is stopped by 3 times washing with PBS-Tween-20. For the detection 50 μl of 20 ng/μl Streptavidin, HRP conjugate (MoBiTec, Göttingen, Germany) in PBS/0.05% Tween-20/0.01% BSA are added and the plates are incubated for 30 minutes at room temperature. After three times washing with PBS-Tween-20 50 μl of SuperSignal ELISA Femto Maximum sensitivity substrate solution (ThermoFisherScientific (Pierce), Bonn, Germany) are added. Following a 1 minute incubation at room temperature luminescence signals are measured with an Envision multimode reader (Perkin Elmer LAS Germany GmbH) at 700 nm. The full value used is the inhibitor-free reaction. […] The inhibitory values (IC50) are determined using either the program Symyx Assay Explorer® or Condosseo® from GeneData.

PARP-1 = molecular target: T2, PARP-1 (Homo sapiens, UniProt P09874); assay: PARP-1 autoparsylation assay (HTRF); format: biochemical; details: His-tagged Parp-1, autoparsylation
T2 construct: purchased Enzo Life Sciences GmbH, Lörrach, Germany
T2 sequence (P09874 whole entry): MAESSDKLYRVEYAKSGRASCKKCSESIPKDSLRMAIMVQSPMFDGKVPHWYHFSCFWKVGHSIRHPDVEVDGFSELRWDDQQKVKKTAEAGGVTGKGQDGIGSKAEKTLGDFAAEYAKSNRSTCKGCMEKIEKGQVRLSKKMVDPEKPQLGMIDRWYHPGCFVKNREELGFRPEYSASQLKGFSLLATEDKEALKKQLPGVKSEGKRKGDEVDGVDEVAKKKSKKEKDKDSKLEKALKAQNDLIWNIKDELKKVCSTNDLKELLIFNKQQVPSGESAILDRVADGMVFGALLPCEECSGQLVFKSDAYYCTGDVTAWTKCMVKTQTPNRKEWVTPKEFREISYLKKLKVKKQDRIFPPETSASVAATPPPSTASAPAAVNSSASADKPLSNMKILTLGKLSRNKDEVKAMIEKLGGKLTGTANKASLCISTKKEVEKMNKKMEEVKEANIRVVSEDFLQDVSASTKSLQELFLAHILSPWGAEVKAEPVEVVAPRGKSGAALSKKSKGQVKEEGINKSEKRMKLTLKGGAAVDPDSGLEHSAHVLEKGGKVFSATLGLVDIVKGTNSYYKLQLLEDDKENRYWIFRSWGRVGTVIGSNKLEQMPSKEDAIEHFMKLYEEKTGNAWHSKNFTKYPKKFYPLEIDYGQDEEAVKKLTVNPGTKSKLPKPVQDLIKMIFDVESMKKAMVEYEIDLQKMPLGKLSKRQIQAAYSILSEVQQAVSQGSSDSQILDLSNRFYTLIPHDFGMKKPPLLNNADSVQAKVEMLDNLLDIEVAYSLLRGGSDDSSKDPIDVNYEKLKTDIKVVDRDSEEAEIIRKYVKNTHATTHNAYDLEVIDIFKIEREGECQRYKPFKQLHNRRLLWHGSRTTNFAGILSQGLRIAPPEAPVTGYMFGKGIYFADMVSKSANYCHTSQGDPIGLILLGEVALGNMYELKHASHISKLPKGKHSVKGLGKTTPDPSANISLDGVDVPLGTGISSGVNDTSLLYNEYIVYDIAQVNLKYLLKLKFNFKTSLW

TNKS2 = molecular target: T3, TNKS2 (Homo sapiens, UniProt Q9H2K2); assay: TNKS2 activity ELISA (autoparsylation assay); format: biochemical
T3 construct: GST-tagged Tnks-2 (873-1166 aa, prepared in-house); made in house
T3 sequence (Q9H2K2 873-1166): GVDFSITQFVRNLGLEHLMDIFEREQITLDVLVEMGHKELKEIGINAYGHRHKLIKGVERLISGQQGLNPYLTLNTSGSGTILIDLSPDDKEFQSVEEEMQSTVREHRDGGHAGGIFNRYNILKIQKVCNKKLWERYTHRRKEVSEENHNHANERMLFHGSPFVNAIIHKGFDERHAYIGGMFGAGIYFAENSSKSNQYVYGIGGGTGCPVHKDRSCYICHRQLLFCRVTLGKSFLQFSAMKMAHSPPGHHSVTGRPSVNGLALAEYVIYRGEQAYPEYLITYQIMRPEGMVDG
Protocol: as §1, §2, §3, §4

Tankyrase = test system: T4, Tankyrase; assay: Measurement of cellular inhibition of Tankyrase (Axin2 level in DLD1 cells, Luminex based assay); format: cell-based; details: read-out: EC50 [M] TNKS cellular assay; DLD1 cells, Axin2 increase, 24 hours
T4 construct: TNKS cellular assay; other: DLD1 cells, Axin2 increase, 24 hours
Protocol: Measurement of Cellular Inhibition of Tankyrase
Cells of the colon carcinoma cell line DLD1 are plated in 96 well plates with 1.5×10^4 cells per well. Next day, cells are treated with a serial dilution of test compound in seven steps as triplicates with a final DMSO concentration of 0.3%. […] The amount of isolated Axin2 protein is determined in a Luminex^200 machine (Luminex Corporation) according to the manufacturer's instruction by counting 100 events per well. […] As controls cells are treated with solvent alone (neutral control) and with a Tankyrase reference inhibitor IWR-2 (3E-06 M) which refers as control for maximum increase of Axin2. For analysis, the obtained data are normalized against the untreated solvent control and fitted for determination of the EC50 values using the Assay Explorer software (Accelrys).

[1] = GST-tagged Tnks-1, read-out: IC50 [M] TNKS1 ELISA
[2] = GST-tagged Tnks-2, read-out: IC50 [M] TNKS2 ELISA

T1 sequence (O95271 1023-1327): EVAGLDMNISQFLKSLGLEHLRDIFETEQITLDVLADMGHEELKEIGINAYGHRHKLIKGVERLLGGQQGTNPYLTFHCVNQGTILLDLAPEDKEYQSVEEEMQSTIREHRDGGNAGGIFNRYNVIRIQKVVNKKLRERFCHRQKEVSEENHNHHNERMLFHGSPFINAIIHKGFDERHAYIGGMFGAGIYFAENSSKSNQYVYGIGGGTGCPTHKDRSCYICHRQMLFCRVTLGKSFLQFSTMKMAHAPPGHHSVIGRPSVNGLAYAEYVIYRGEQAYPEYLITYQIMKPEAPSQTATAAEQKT

`COc1ccc(C(=O)C2CCN(C(=O)CCCc3nc4ccccc4c(=O)[nH]3)CC2)cc1` [Compound A1, 2-{4-[4-(4-methoxy-benzoyl)-piperidin-1-yl]-4-oxo-butyl}-3H-quinazolin-4-one] gave an IC50 (TNKS1) of 2.3e-10 M, an IC50 (PARP-1) of 1400 nM and an IC50 (TNKS2) of 1.1e-10 M. For the same compound, the EC50 (Tankyrase) was 1.6e-09 M.

For `O=C(c1ccccc1)C1CCN(C(=O)CCCc2nc3ccccc3c(=O)[nH]2)CC1` [Compound A2, 2-[4-(4-benzoyl-piperidin-1-yl)-4-oxo-butyl]-3H-quinazolin-4-one], the IC50 (TNKS1; [1]) was 7.3e-10 M, the IC50 (PARP-1) was 730 nM and the IC50 (TNKS2; [2]) was 5.5e-10 M. It also gave an EC50 (Tankyrase) of 6.5e-08 M.

Compound `Cc1cc(F)cc2c(=O)[nH]c(CCCC(=O)N3CCC(C(=O)c4ccccc4)CC3)nc12` [Compound A3, 2-[4-(4-benzoyl-piperidin-1-yl)-4-oxo-butyl]-6-fluoro-8-methyl-3H-quinazolin-4-one] has an IC50 (TNKS1; [1]) of 2.2e-10 M, an IC50 (PARP-1) of 29 nM and an IC50 (TNKS2; [2]) of 1.3e-10 M. The EC50 (Tankyrase) was 3.4e-09 M.

For `COc1ccc(C(=O)C2CCN(C(=O)CCCc3nc4c(C)cc(F)cc4c(=O)[nH]3)CC2)cc1` [Compound A4, 6-fluoro-2-{4-[4-(4-methoxy-benzoyl)-piperidin-1-yl]-4-oxo-butyl}-8-methyl-3H-quinazolin-4-one], the IC50 (TNKS1; [1]) was 6.6e-11 M, the IC50 (PARP-1) was 170 nM and the IC50 (TNKS2; [2]) was 8.9e-11 M. It also gave an EC50 (Tankyrase) of 5.6e-10 M.

`COc1ccc(C(=O)C2CCN(C(=O)CCCc3nc4c(F)cc(F)cc4c(=O)[nH]3)CC2)cc1` [Compound A5, 6,8-difluoro-2-{4-[4-(4-methoxy-benzoyl)-piperidin-1-yl]-4-oxo-butyl}-3H-quinazolin-4-one] showed an IC50 (TNKS1; [1]) of 8.7e-11 M, an IC50 (PARP-1) of 780 nM and an IC50 (TNKS2; [2]) of 1.6e-10 M. It also gave an EC50 (Tankyrase) of 2.6e-09 M.

With `O=C(c1ccccc1)C1CCN(C(=O)CCCc2nc3c(F)cc(F)cc3c(=O)[nH]2)CC1` [Compound A6, 2-[4-(4-benzoyl-piperidin-1-yl)-4-oxo-butyl]-6,8-difluoro-3H-quinazolin-4-one] the IC50 (TNKS1; [1]) was 3.8e-10 M, the IC50 (PARP-1) was 650 nM and the IC50 (TNKS2; [2]) was 9.3e-10 M.

In the case of `Cc1cccc(C(=O)C2CCN(C(=O)CCCc3nc4ccccc4c(=O)[nH]3)CC2)c1` [Compound A7, 2-{4-[4-(3-methyl-benzoyl)-piperidin-1-yl]-4-oxo-butyl}-3H-quinazolin-4-one], the IC50 (TNKS1) is reported as 2.2e-10 M, the IC50 (PARP-1) is reported as 810 nM and the IC50 (TNKS2) is reported as 1.9e-10 M. For the same compound, the EC50 (Tankyrase) was 2e-08 M.

`COc1ccc(C(=O)C2CCN(C(=O)CCCc3nc4ccccc4c(=O)[nH]3)CC2)cc1F` [Compound A8, 2-{4-[4-(3-fluoro-4-methoxy-benzoyl)-piperidin-1-yl]-4-oxo-butyl}-3H-quinazolin-4-one] gave an IC50 (TNKS1; [1]) of 8.5e-11 M, an IC50 (PARP-1) of 680 nM and an IC50 (TNKS2; [2]) of 1.5e-10 M. The EC50 (Tankyrase) was 3.4e-09 M.

For `COc1cccc(C(=O)C2CCN(C(=O)CCCc3nc4ccccc4c(=O)[nH]3)CC2)c1` [Compound A9, 2-{4-[4-(3-methoxy-benzoyl)-piperidin-1-yl]-4-oxo-butyl}-3H-quinazolin-4-one], the IC50 (TNKS1; [1]) was 1.9e-10 M, the IC50 (PARP-1) was 740 nM and the IC50 (TNKS2; [2]) was 3.3e-10 M. The EC50 (Tankyrase) was 1.9e-08 M.

Work on `CCn1cc(-c2ccc(C(=O)C3CCN(C(=O)CCCc4nc5ccccc5c(=O)[nH]4)CC3)cc2)cn1` [Compound A10, 2-(4-{4-[4-(1-ethyl-1H-pyrazol-4-yl)-benzoyl]-piperidin-1-yl}-4-oxo-butyl)-3H-quinazolin-4-one] yielded an IC50 (TNKS1) of 1e-10 M, an IC50 (PARP-1) of 100 nM and an IC50 (TNKS2) of 1.6e-10 M. It also gave an EC50 (Tankyrase) of 4.9e-09 M.

`COCCn1cc(-c2ccc(C(=O)C3CCN(C(=O)CCCc4nc5ccccc5c(=O)[nH]4)CC3)cc2)cn1` [Compound A11, 2-[4-(4-{4-[1-(2-methoxy-ethyl)-1H-pyrazol-4-yl]-benzoyl}-piperidin-1-yl)-4-oxo-butyl]-3H-quinazolin-4-one] was tested, and the IC50 (TNKS1; [1]) was 5.8e-11 M, the IC50 (PARP-1) was 300 nM and the IC50 (TNKS2; [2]) was 1.2e-10 M. It also gave an EC50 (Tankyrase) of 7.3e-09 M.

`O=C(c1ccc(-c2cnn(CCN3CCCC3)c2)cc1)C1CCN(C(=O)CCCc2nc3ccccc3c(=O)[nH]2)CC1` [Compound A12, 2-[4-oxo-4-(4-{4-[1-(2-pyrrolidin-1-yl-ethyl)-1H-pyrazol-4-yl]-benzoyl}-piperidin-1-yl)-butyl]-3H-quinazolin-4-one] was tested, and the IC50 (TNKS1; [1]) was 2.5e-10 M, the IC50 (PARP-1) was 650 nM and the IC50 (TNKS2; [2]) was 3.5e-10 M. It also gave an EC50 (Tankyrase) of 6.8e-09 M.

In the case of `COc1ccc(C(=O)C2CCN(C(=O)CCCc3nc4ccccc4c(=O)[nH]3)CC2)cc1C` [Compound A13, 2-[4-[4-(4-methoxy-3-methyl-benzoyl)-1-piperidyl]-4-oxo-butyl]-3H-quinazolin-4-one], the IC50 (TNKS1; [1]) is reported as 1e-10 M, the IC50 (PARP-1) is reported as 990 nM and the IC50 (TNKS2; [2]) is reported as 1.3e-10 M. The EC50 (Tankyrase) was 8.6e-10 M.

Work on `COc1ccc(C(=O)C2CCN(C(=O)CCCc3nc4c(F)cc(F)cc4c(=O)[nH]3)CC2)cc1C` [Compound A14, 6,8-difluoro-2-[4-[4-(4-methoxy-3-methyl-benzoyl)-1-piperidyl]-4-oxo-butyl]-3H-quinazolin-4-one] yielded an IC50 (TNKS1; [1]) of 8.6e-11 M, an IC50 (PARP-1) of 1000 nM and an IC50 (TNKS2; [2]) of 1.6e-10 M. For the same compound, the EC50 (Tankyrase) was 3.3e-09 M.

`COc1ccc(C(=O)C2CCN(C(=O)CCCc3nc4c(C)cc(F)cc4c(=O)[nH]3)CC2)cc1C` [Compound A15, 6-fluoro-2-[4-[4-(4-methoxy-3-methyl-benzoyl)-1-piperidyl]-4-oxo-butyl]-8-methyl-3H-quinazolin-4-one] was tested, and the IC50 (TNKS1; [1]) was 8.8e-11 M, the IC50 (PARP-1) was 64 nM and the IC50 (TNKS2; [2]) was 7.4e-11 M. For the same compound, the EC50 (Tankyrase) was 1.4e-09 M.

Work on `COc1ccc(C(=O)C2CCN(C(=O)CCCc3nc4ccccc4c(=O)[nH]3)CC2)cn1` [Compound A16, 2-{4-[4-(6-Methoxy-pyridine-3-carbonyl)-piperidin-1-yl]-4-oxo-butyl}-3H-quinazolin-4-one] yielded an IC50 (TNKS1; [1]) of 1.1e-09 M, an IC50 (PARP-1) of 2700 nM and an IC50 (TNKS2; [2]) of 7.5e-10 M. For the same compound, the EC50 (Tankyrase) was 1e-08 M.

`N#Cc1ccc(OC2CCN(C(=O)CCCc3nc4ccccc4c(=O)[nH]3)CC2)cc1` [Compound A17, 4-{1-[4-(4-Oxo-3,4-dihydro-quinazolin-2-yl)-butyryl]-piperidin-4-yloxy}-benzonitrile] showed an IC50 (TNKS1) of 1.5e-07 M, an IC50 (PARP-1) of 680 nM and an IC50 (TNKS2) of 7.9e-08 M. For the same compound, the EC50 (Tankyrase) was 7.2e-07 M.

With `O=C(c1ccc(F)cc1)C1CCN(C(=O)CCCc2nc3ccccc3c(=O)[nH]2)CC1` [Compound A18, 2-{4-[4-(4-Fluoro-benzoyl)-piperidin-1-yl]-4-oxo-butyl}-3H-quinazolin-4-one] the IC50 (TNKS1; [1]) was 7e-10 M, the IC50 (PARP-1) was 2100 nM and the IC50 (TNKS2; [2]) was 6.1e-10 M. It also gave an EC50 (Tankyrase) of 2.1e-08 M.

Work on `O=C(c1ccc(F)cc1)C1CCN(C(=O)CCCc2nc3ccc(F)cc3c(=O)[nH]2)CC1` [Compound A23, 6-Fluoro-2-{4-[4-(4-fluoro-benzoyl)-piperidin-1-yl]-4-oxo-butyl}-3H-quinazolin-4-one] yielded an IC50 (TNKS1; [1]) of 8.4e-10 M, an IC50 (PARP-1) of 650 nM and an IC50 (TNKS2; [2]) of 5.9e-10 M.

`CC(C)(O)c1ccc(C(=O)C2CCN(C(=O)CCCc3nc4c(F)cccc4c(=O)[nH]3)CC2)cc1` [Compound A37, 8-Fluoro-2-(4-{4-[4-(1-hydroxy-1-methyl-ethyl)-benzoyl]-piperidin-1-yl}-4-oxo-butyl)-3H-quinazolin-4-one] was tested, and the IC50 (TNKS1; [1]) was 1.1e-08 M and the IC50 (PARP-1) was 4300 nM.

In the case of `CC(C)(O)c1ccc(C(=O)C2CCN(C(=O)CCCc3nc4ccccc4c(=O)[nH]3)CC2)cc1` [Compound A38, 2-(4-{4-[4-(1-Hydroxy-1-methyl-ethyl)-benzoyl]-piperidin-1-yl}-4-oxo-butyl)-3H-quinazolin-4-one], the IC50 (TNKS1; [1]) is reported as 2.2e-08 M, the IC50 (PARP-1) is reported as 430 nM and the IC50 (TNKS2; [2]) is reported as 8.4e-09 M.

For `CC(C)(O)c1ccc(C(=O)C2CCN(C(=O)CCCc3nc4ccc(F)cc4c(=O)[nH]3)CC2)cc1` [Compound A39, 6-Fluoro-2-(4-{4-[4-(1-hydroxy-1-methyl-ethyl)-benzoyl]-piperidin-1-yl}-4-oxo-butyl)-3H-quinazolin-4-one], the IC50 (TNKS1; [1]) was 9.6e-09 M and the IC50 (PARP-1) was 270 nM.

With `Cn1ccnc1C(=O)C1CCN(C(=O)CCCc2nc3ccccc3c(=O)[nH]2)CC1` [Compound A40, 2-{4-[4-(1-methyl-1H-imidazole-2-carbonyl)-piperidin-1-yl]-4-oxo-butyl}-3H-quinazolin-4-one] the IC50 (TNKS1) was 8.2e-08 M, the IC50 (PARP-1) was 3200 nM and the IC50 (TNKS2; [2]) was 6.1e-08 M.
